biological target: T1, Full length (FL) 3-Phosphoglycerate Dehydrogenase (PHGDH) (Homo sapiens, UniProt O43175); test: Full length (FL) PHGDH Diaphorase coupled assay (500 uM NAD); assay type: biochemical; details: 5 nM PHGDH, 30° C., 60 minutes
T1 construct: Full length (FL) 3-Phosphoglycerate Dehydrogenase (PHGDH) Diaphorase coupled assay (500 uM NAD)
T1 sequence (O43175 1-533): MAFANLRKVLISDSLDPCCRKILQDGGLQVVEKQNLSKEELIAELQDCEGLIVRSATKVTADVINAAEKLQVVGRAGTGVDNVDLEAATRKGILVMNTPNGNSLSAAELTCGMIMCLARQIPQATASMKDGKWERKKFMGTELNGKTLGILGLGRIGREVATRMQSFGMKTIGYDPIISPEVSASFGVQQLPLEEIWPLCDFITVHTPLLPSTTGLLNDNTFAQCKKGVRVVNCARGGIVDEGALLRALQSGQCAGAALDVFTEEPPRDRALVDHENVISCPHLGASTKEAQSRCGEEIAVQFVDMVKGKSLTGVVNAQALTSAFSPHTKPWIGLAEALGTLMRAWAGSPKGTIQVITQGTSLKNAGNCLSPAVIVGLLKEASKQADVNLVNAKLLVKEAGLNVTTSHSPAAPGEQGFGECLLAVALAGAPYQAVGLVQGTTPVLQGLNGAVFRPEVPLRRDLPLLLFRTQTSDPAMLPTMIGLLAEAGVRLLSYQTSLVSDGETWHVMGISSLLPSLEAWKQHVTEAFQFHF
Method: Full length (FL) 3-Phosphoglycerate Dehydrogenase (PHGDH) Diaphorase coupled assay (500 uM NAD)
PHGDH activity was determined by detecting the NADH produced during the reaction. Diaphorase was used to catalyze the oxidation of NADH with the concomitant reduction of resazurin to the fluorescent product resorufin. Resorufin fluorescence quantitatively reflected the production of NADH by the PHGDH reaction. To drive the forward reaction, two enzymes in the serine synthesis pathway subsequent to PHGDH, Phosphoserine aminotransferase (PSAT1) and phosphoserine phosphatase (PSPH) were also added to the reaction.

SMILES | IC50
CC(NC(=O)c1cc2c(Cl)c(Cl)ccc2n1C)c1ccc(CC(=O)O)cc1F (stereo not shown) [Compound I-31] | 10 to 1000 nM
COc1cc2c(cc(C(=O)N[C@H](CO)c3ccc(C(=O)O)cc3Cl)n2C)c(Cl)c1C [Compound I-16, 3-chloro-4-[(1S)-1-[(4-chloro-6-methoxy-1,5-dimethyl-1H-indol-2-yl)formamido]-2-hydroxyethyl]benzoic acid] | 10 to 1000 nM
CC(C)C(C(=O)O)c1ccc([C@@H](CO)NC(=O)c2cc3c(Cl)c(Cl)ccc3n2C)cc1 (mixture of isomers) [Compound I-56, (±)-2-[4-[(1S)-1-[(4,5-dichloro-1-methyl-indole-2-carbonyl)amino]-2-hydroxy-ethyl]phenyl]-3-methyl-butanoic Acid] | 10 to 1000 nM
Cn1c(C(=O)N[C@H](CO)c2ccc(C(=O)O)cc2F)cc2c(Cl)c(Cl)ccc21 [Compound I-22] | 10 to 1000 nM
COc1ccc2c(cc(C(=O)N[C@H](CO)c3ccc(C(=O)O)cc3C)n2C)c1Cl [Compound I-11] | 10 to 1000 nM
Cc1cc(C(=O)O)ccc1[C@@H](CO)NC(=O)c1cc2c(Cl)c(Cl)ccc2n1C [Compound I-18] | 10 to 1000 nM
COc1ccc2c(cc(C(=O)N[C@H](CO)c3ccc(C(=O)O)cc3Cl)n2C)c1Cl [Compound I-21, 3-chloro-4-[(1S)-1-[(4-chloro-5-methoxy-1-methyl-1H-indol-2-yl)formamido]-2-hydroxyethyl]benzoic acid] | 10 to 1000 nM
CC(C)C(C(=O)O)c1ccc([C@@H](CO)NC(=O)c2cc3c(Cl)c(Cl)ccc3n2C)cc1 (single isomer, unassigned) [Compound I-54, (2R or 2S)-2-[4-[(1S)-1-[(4,5-dichloro-1-methyl-indole-2-carbonyl)amino]-2-hydroxy-ethyl]phenyl]-3-methyl-butanoic acid] | 10 to 1000 nM
Cn1c(C(=O)N[C@H](CO)c2ccc(C(C)(C)C(=O)O)cc2)cc2c(Cl)c(Cl)ccc21 [Compound I-1] | 10 to 1000 nM
Cn1c(C(=O)N[C@H](CO)c2ccc(C3(C(=O)O)CC3)cc2)cc2c(Cl)c(Cl)ccc21 [Compound I-3] | 10 to 1000 nM
Cn1c(C(=O)NC(C)(C)c2ccc(C(=O)O)cc2)cc2c(Cl)c(Cl)ccc21 [Compound I-35] | 1000 to 5000 nM
COc1ccc2c(cc(C(=O)N[C@H](CO)c3ccc(C(C)(C)C(=O)O)cc3)n2C)c1Cl [Compound I-2] | 10 to 1000 nM
CC(NC(=O)c1cc2c(Cl)c(Cl)ccc2n1C)c1ccc(C(=O)O)cc1F (stereo not shown) [Compound I-30] | 10 to 1000 nM
Cn1c(C(=O)N[C@H](CO)c2ccc(C(=O)O)cc2)cc2c(Cl)c(Cl)c(OCC(=O)NCCO)cc21 [Compound I-40, 4-[(1S)-1-[[4,5-Dichloro-6-[2-(2-hydroxyethylamino)-2-oxo-ethoxy]-1-methyl-indole-2-carbonyl]amino]-2-hydroxy-ethyl]benzoic Acid] | 10 to 1000 nM
COc1cc2c(cc(C(=O)N[C@H](CO)c3ccc(CC(=O)O)cc3F)n2C)c(Cl)c1C [Compound I-26] | 10 to 1000 nM
Cn1c(C(=O)NC(CC2CC2)c2ccc(C(=O)O)cc2)cc2c(Cl)c(Cl)ccc21 (stereo not shown) [Compound I-36] | 1000 to 5000 nM
Cn1c(C(=O)NCc2ccc(C(=O)O)cc2)cc2c(Cl)c(Cl)ccc21 [Compound I-37] | 1000 to 5000 nM
CCC(C(=O)O)c1ccc([C@@H](CO)NC(=O)c2cc3c(Cl)c(Cl)ccc3n2C)cc1 (mixture of isomers) [Compound I-15, (±)-2-[4-[(1S)-1-[(4,5-dichloro-1-methyl-indole-2-carbonyl)amino]-2-hydroxy-ethyl]phenyl]butanoic Acid] | 10 to 1000 nM
COc1ccc2c(cc(C(=O)N[C@H](CO)c3ccc(CC(=O)O)cc3)n2C)c1Cl [Compound I-23, 2-{4-[(1S)-1-[(4-chloro-5-methoxy-1-methyl-1H-indol-2-yl)formamido]-2-hydroxyethyl]phenyl}acetic acid] | 10 to 1000 nM
CC(NC(=O)c1cc2c(Cl)c(Cl)ccc2n1C)c1ccc(CC(=O)O)cc1 (racemic) [Compound I-34, (±)-2-(4-(1-(4,5-Dichloro-1-methyl-1H-indole-2-carboxamido)ethyl)phenyl) acetic Acid] | 10 to 1000 nM
Cn1c(C(=O)N[C@H](CO)c2ccc(C(=O)O)cc2)cc2c(Cl)c(Cl)ccc21 [Compound I-43, 4-[(1S)-1-[(4,5-dichloro-1-methyl-1H-indol-2-yl)formamido]-2-hydroxyethyl]benzoic acid] | 10 to 1000 nM

SMILES | IC50
COc1ccc2c(cc(C(=O)N[C@H](CO)c3ccc(CC(=O)O)cc3Cl)n2C)c1Cl [Compound I-9, 2-{3-chloro-4-[(1S)-1-[(4-chloro-5-methoxy-1-methyl-1H-indol-2-yl)formamido]-2-hydroxyethyl]phenyl}acetic acid] | 10 to 1000 nM
COc1cc2c(cc(C(=O)N[C@H](CO)c3ccc(C(=O)O)cc3Cl)n2C)c(Cl)c1Cl [Compound I-17, 3-chloro-4-[(1S)-1-[(4,5-dichloro-6-methoxy-1-methyl-1H-indol-2-yl)formamido]-2-hydroxyethyl]benzoic acid] | 10 to 1000 nM
CC(NC(=O)c1cc2c(Cl)c(Cl)ccc2n1C)c1ccc(C(=O)O)cc1 (stereo not shown) [Compound I-44] | 10 to 1000 nM
COc1cc2c(cc(C(=O)N[C@H](CO)c3ccc(C(=O)O)cc3F)n2C)c(Cl)c1Cl [Compound I-20] | 10 to 1000 nM
Cn1c(C(=O)N[C@H](CO)c2ccc(C(=O)O)cc2Cl)cc2c(Cl)c(Cl)ccc21 [Compound I-27, 3-chloro-4-[(1S)-1-[(4,5-dichloro-1-methyl-1H-indol-2-yl)formamido]-2-hydroxyethyl]benzoic acid] | 10 to 1000 nM
Cn1c(C(=O)N[C@H](CO)c2ccc(CC(=O)O)cc2Cl)cc2c(Cl)c(Cl)ccc21 [Compound I-10, 2-{3-chloro-4-[(1S)-1-[(4,5-dichloro-1-methyl-1H-indol-2-yl)formamido]-2-hydroxyethyl]phenyl}-acetic acid] | 10 to 1000 nM
COc1cc2c(cc(C(=O)N[C@H](CO)c3ccc(CC(=O)O)cc3F)n2C)c(Cl)c1Cl [Compound I-28, 2-{4-[(1S)-1-[(4,5-dichloro-6-methoxy-1-methyl-1H-indol-2-yl)formamido]-2-hydroxyethyl]-3-fluorophenyl}acetic acid] | 10 to 1000 nM
Cn1c(C(=O)NC(CF)c2ccc(C(=O)O)cc2)cc2c(Cl)c(Cl)ccc21 (stereo not shown) [Compound I-6] | 10 to 1000 nM
COc1cc2c(cc(C(=O)N[C@H](CO)c3ccc(CC(=O)O)cc3F)n2C)c(Cl)c1F [Compound I-24] | 10 to 1000 nM
COc1cc2c(cc(C(=O)N[C@H](CO)c3ccc(C(=O)O)cc3C)n2C)c(Cl)c1C [Compound I-8] | 10 to 1000 nM
Cn1c(C(=O)NC(c2ccc(C(=O)O)cc2)C(F)(F)F)cc2c(Cl)c(Cl)ccc21 (racemic) [Compound I-38, (±)-4-(1-(4,5-Dichloro-1-methyl-1H-indole-2-carboxamido)-2,2,2-trifluoroethyl)benzoic Acid] | 1000 to 5000 nM
Cc1cc(CC(=O)O)ccc1[C@@H](CO)NC(=O)c1cc2c(Cl)c(Cl)ccc2n1C [Compound I-19] | 10 to 1000 nM
COc1ccc2c(cc(C(=O)N[C@H](CO)c3ccc(C(=O)O)cc3F)n2C)c1Cl [Compound I-13] | 10 to 1000 nM
COc1cc2c(cc(C(=O)N[C@H](CO)c3ccc(C(=O)O)cc3F)n2C)c(Cl)c1C [Compound I-12] | 10 to 1000 nM
Cn1c(C(=O)NC(c2ccc(C(=O)O)cc2)C2CC2)cc2c(Cl)c(Cl)ccc21 (stereo not shown) [Compound I-42] | 1000 to 5000 nM
CC(NC(=O)c1cc2c(Cl)c(Cl)ccc2n1C)c1ccc(C(=O)O)cc1Cl (stereo not shown) [Compound I-33] | 10 to 1000 nM
CCC(C(=O)O)c1ccc([C@@H](CO)NC(=O)c2cc3c(Cl)c(OC)ccc3n2C)cc1 (mixture of isomers) [Compound I-5, (±)-2-[4-[(1S)-1-[(4-chloro-5-methoxy-1-methyl-indole-2-carbonyl)amino]-2-hydroxy-ethyl]phenyl]butanoic Acid] | 10 to 1000 nM
CC(C(=O)O)c1ccc([C@@H](CO)NC(=O)c2cc3c(Cl)c(Cl)ccc3n2C)cc1 (stereo partly shown) [Compound I-14] | 10 to 1000 nM
Cn1c(C(=O)N[C@H](CO)c2ccc(CC(=O)O)cc2F)cc2c(Cl)c(Cl)ccc21 [Compound I-32, 2-{4-[(1S)-1-[(4,5-dichloro-1-methyl-1H-indol-2-yl)formamido]-2-hydroxyethyl]-3-fluorophenyl}acetic acid] | 10 to 1000 nM
COc1cc2c(cc(C(=O)N[C@H](CO)c3ccc(C(=O)O)cc3C)n2C)c(Cl)c1Cl [Compound I-7] | 10 to 1000 nM
Cn1c(C(=O)N[C@H](CO)c2ccc(CC(=O)O)cc2)cc2c(Cl)c(Cl)ccc21 [Compound I-29, 2-{4-[(1S)-1-[(4,5-dichloro-1-methyl-1H-indol-2-yl)formamido]-2-hydroxyethyl]phenyl}acetic acid] | 10 to 1000 nM

same assay, conditions: read-out: FL Diaphorase 500 μM NAD (PHGDH activity inhibition, IC50), 5 nM PHGDH, 30° C., 60 minutes

SMILES | IC50
CC(C)C(C(=O)O)c1ccc([C@@H](CO)NC(=O)c2cc3c(Cl)c(Cl)ccc3n2C)cc1 (single isomer, unassigned) [Compound I-55, (2S or 2R)-2-[4-[(1S)-1-[(4,5-dichloro-1-methyl-indole-2-carbonyl)amino]-2-hydroxy-ethyl]phenyl]-3-methyl-butanoic acid] | 10 to 1000 nM

Reference: patent US11535593B2, “3-phosphoglycerate dehydrogenase inhibitors and uses thereof” (Raze Therapeutics, Inc., priority 2016, dated 2022)
